Earlier results in patent US11708377B2, “Analogues and derivatives of cephalotaxine and methods for making and using the compounds” (Oregon State University, priority 2019, dated 2023).

Tests used:
[1] = background statement; lacks the ester sidechain of HHT
[2] = test system: leukemia cells; settings: background statement, no figure given

Compound | biological activity [1] | cytotoxicity against leukemia cells [2]
COC1=C[C@]23CCCN2CCc2cc4c(cc2[C@@H]3[C@@H]1O)OCO4 [Cephalotaxine, (−)-Cephalotaxine] | biologically inactive | 
COC(=O)C[C@](O)(CCCC(C)(C)O)C(=O)O[C@@H]1C(OC)=C[C@]23CCCN2CCc2cc4c(cc2[C@H]13)OCO4 [HHT, (−)-Homoharringtonine] |  | nanomolar cytotoxicity
